Data: publication PMC10293842 (Proceedings of the National Academy of Sciences of the …, 2023)
Positions of bridges follow the written chain, without caps; N, C: chain ends. Residues, ends and D or L forms follow the SMILES beside them.

Columns and labels:
[1] = tested on: Omicron BA.1 and BA.2; conditions: cited from earlier work
[2] = tested on: Omicron BA.1; conditions: cited from earlier work
[3] = tested on: Omicron BA.2; conditions: cited from earlier work
[4] = tested on: SARS-CoV-2 S (Wuhan-Hu-1) pseudo-typed VSV on VeroE6 cells; type: cell-based
[5] = tested on: Alpha (B.1.1.7) S pseudotyped virus on VeroE6 cells; type: cell-based, SARS-CoV-2
[6] = tested on: Beta (B.1.351) S pseudotyped virus on VeroE6 cells; type: cell-based, SARS-CoV-2
[7] = tested on: Delta (B.1.617.2) S pseudotyped virus on VeroE6 cells; type: cell-based, SARS-CoV-2
[8] = tested on: Omicron (B.1.1.529) BA.1 S pseudotyped virus on VeroE6 cells; type: cell-based, SARS-CoV-2
[9] = tested on: Omicron BA.2 S pseudotyped virus on VeroE6 cells; type: cell-based, SARS-CoV-2
[10] = tested on: SARS1-S pseudovirus on VeroE6 cells; type: cell-based
[11] = tested on: WIV-16-S pseudovirus on VeroE6 cells; type: cell-based
[12] = tested on: SARS-CoV-2 ancestral Wuhan strain in HEK293 ACE2+ TMPRSS2+ cells; conditions: 24 h

Cilgavimab [reference compound]
decrease in activity [1]: 20 fold

Sotrovimab
loss in potency against Omicron BA.1 [2]: threefold | loss in potency against Omicron BA.2 [3]: 27 fold

CC[C@H](C)[C@@H]1NC(=O)[C@H](CCC(N)=O)NC(=O)[C@H](CCC(=O)O)NC(=O)[C@H](CCCNC(=N)N)NC(=O)[C@@H]2CCCN2C(=O)[C@H](CCCNC(=N)N)NC(=O)[C@H](CCCNC(=N)N)NC(=O)[C@H](Cc2ccc(O)cc2)NC(=O)CSC[C@@H](C(=O)NCC(N)=O)NC(=O)[C@H](Cc2ccccc2)NC(=O)[C@H](C(C)C)NC(=O)[C@H](Cc2c[nH]c3ccccc23)NC(=O)[C@H](CC(C)C)NC(=O)[C@H](CO)NC(=O)CNC(=O)[C@H]([C@@H](C)CC)NC(=O)[C@H]([C@@H](C)CC)NC1=O [Peptide S1b3inL1] ({CH2CO}-YRRPREQIIIGSLWVFCG-NH2; thioether N-17)
pseudoviral neutralization activity (in words) [4]: submicromolar concentrations | fluctuation of EC50, Alpha [5]: 1.5 fold | fluctuation of EC50, Beta [6]: 3.1 fold | fluctuation of EC50, Delta [7]: 2.1 fold | fluctuation of EC50, Omicron BA.1 [8]: 3.1 fold | fluctuation of EC50, Omicron BA.2 [9]: 2.1 fold | change of infection inhibition, SARS1-S [10]: 1.3 fold | change of infection inhibition, WIV-16-S [11]: 4.1 fold | EC50 [12]: 5.2 µM
